The test system of the first assay is Male NMRI mice. The assay is described as follows: phenylquinone-induced writhing test in mice. It is filed as in vivo. As to conditions: Mus musculus, iv, 10 mg/kg i.v., 10 minutes before phenylquinone i.p., writhing counted 5-20 minutes after phenylquinone, read-out: % inhibition of the writhing reactions (10 mg/kg i.v.). As to the method: The antinociceptive activity of the compounds according to the invention was investigated in mice in the phenylquinone-induced writhing test, modified by I.C. Hendershot, J. Forsaith, J. Pharmacol. Exp. Ther. 125, 237-240 (1959). Male NMRI mice weighing 25-30 g were used. Groups of 10 animals per substance dose received 0.3 ml/mouse of a 0.02% aqueous solution of phenylquinone (phenylbenzoquinone, Sigma, Deisenhofen; preparation of the solution with the addition of 5% ethanol and storage in a water bath at 45° C.) administered intraperitoneally 10 minutes after intravenous administration of a compound according to the invention. The animals were placed individually in observation cages. The number of pain-induced stretching movements (so-called writhing reactions, that is straightening of the body with stretching of the hind extremities) was counted by means of a push-button counter for 5-20 minutes after the administration of phenylquinone. Animals which received physiological saline solution i.v. and phenylquinone […]. were also run as a control.
All substances were tested in the standard dose of 10 mg/kg. The percentage inhibition (% inhibition) of the writhing reactions by a substance was calculated according to the following equation:
% inhibition=100−(WRtreated animals/WRcontrol×100)
Turning to `COC(=O)c1cccc(C=C2CCC(CN(C)C)C(c3cccc(OC)c3)C2)c1` (racemic) [Compound 8, rac-trans-E-3-[4-dimethylaminomethyl-3-(3-methoxy-phenyl)-cyclohexylidenemethyl]-benzoic acid methyl ester], the inhibition in vivo at 10 mg/kg turned out to be 98%. For the compound `COc1cccc([C@@H]2C/C(=C\c3cccc(C(=O)O)c3)CC[C@H]2CN(C)C)c1` (racemic) [Compound 17, rac-trans-Z-3-[4-Dimethylaminomethyl-3-(3-methoxy-phenyl)-cyclohexylidenemethyl]-benzoic acid], the inhibition in vivo at 10 mg/kg was determined as 85%. Regarding `COc1cccc([C@@H]2C/C(=C/c3cccc(C(=O)O)c3)CC[C@H]2CN(C)C)c1` (racemic) [Compound 18, rac-trans-E-3-[4-Dimethylaminomethyl-3-(3-methoxy-phenyl)-cyclohexylidenemethyl]-benzoic acid], the inhibition in vivo at 10 mg/kg stood at 100%. `CN(C)C[C@@H]1CC/C(=C\c2cccc(CO)c2)C[C@H]1c1cccc(O)c1` (racemic) [Compound 19, rac-trans-E-3-[2-dimethylaminomethyl-5-(3-hydroxymethyl-benzylidene)-cyclohexyl]-phenol]: the inhibition in vivo at 10 mg/kg turned out to be 82%. Same read-out and setting: next, `CN(C)C[C@@H]1CC/C(=C\c2ccccc2)C[C@H]1c1cccc(O)c1` (racemic) [Compound 20, rac-trans-E-3-(5-benzylidene-2-dimethylaminomethyl-cyclohexyl)-phenol]: 84%; `CN(C)C[C@@H]1CC/C(=C/c2ccccc2)C[C@H]1c1cccc(O)c1` (racemic) [Compound 23, rac-trans-Z-3-(5-Benzylidene-2-dimethylaminomethyl-cyclohexyl)-phenol]: 88%; `CCOC(=O)c1cccc(/C=C2/CC[C@H](CN(C)C)[C@H](c3cccc(OC)c3)C2)c1` (racemic) [Compound 30, rac-cis-Z-3-[4-Dimethylaminomethyl-3-(3-methoxy-phenyl)-cyclohexylidenemethyl]-benzoic acid ethyl ester]: 84%.

As for `CCN(CC)C(=O)c1cccc(/C=C2\CCC(CN(C)C)C(c3cccc(OC)c3)C2)c1` (racemic) [Compound 32], the inhibition in vivo at 10 mg/kg stood at 100%. As to `CCN(CC)C(=O)c1cccc(/C=C2/CC[C@@H](CN(C)C)[C@H](c3cccc(OC)c3)C2)c1` (racemic) [Compound 36, rac-trans-Z-3-[4-Dimethylaminomethyl-3-(3-methoxy-phenyl)-cyclohexylidenemethyl]-N,N-diethyl-benzamide], the inhibition in vivo at 10 mg/kg was determined as 100%. Same read-out and setting: next, `COc1cccc(C2=C/C(=C\c3cccc(C(=O)O)c3)CCC2CN(C)C)c1` (centres unmarked) [Compound 14, Z-3-[4-Dimethylaminomethyl-3-(3-methoxy-phenyl)-cyclohex-2-enylidenemethyl]-benzoic acid]: 94%; `COc1cccc(C2=C/C(=C/c3cccc(C(=O)O)c3)CCC2CN(C)C)c1` (centres unmarked) [Compound 15, E-3-[4-Dimethylaminomethyl-3-(3-methoxy-phenyl)-cyclohex-2-enylidenemethyl]-benzoic acid]: 100%. On the same count and under the same terms, next, `COc1cccc(C2=C/C(=C/c3cccc(CO)c3)CCC2CN(C)C)c1` (centres unmarked) [Compound 16, E-{3-[4-dimethylaminomethyl-3-(3-methoxy-phenyl)-cyclohex-2-enylidenemethyl]-phenyl}-methanol]: 98%; `COc1cccc(C2=C/C(=C/c3cccc(C(=O)OC(C)(C)C)c3)CCC2CN(C)C)c1` (centres unmarked) [Compound 21, E-3-[4-Dimethylaminomethyl-3-(3-methoxy-phenyl)-cyclohex-2-enylidenemethyl]-benzoic acid tert-butyl ester]: 79%; `CN(C)CC1CC/C(=C\c2cccc(CO)c2)C=C1c1cccc(O)c1` (centres unmarked) [Compound 22, E-3-[6-Dimethylaminomethyl-3-(3-hydroxymethyl-benzylidene)-cyclohex-1-enyl]-phenol]: 93%. Regarding `CN(C)CC1=C(c2cccc(O)c2)C/C(=C\c2cccc(CO)c2)CC1` [Compound 24, Z-3-[2-dimethylaminomethyl-5-(3-hydroxymethyl-benzylidene)-cyclohex-1-enyl]-phenol], the inhibition in vivo at 10 mg/kg is 100%.

Turning to `COc1cccc(C2=C/C(=C\c3cccc(CO)c3)CCC2CN(C)C)c1` (centres unmarked) [Compound 25, Z-{3-[4-Dimethylaminomethyl-3-(3-methoxy-phenyl)-cyclohex-2-enylidenemethyl]-phenyl}-methanol], the inhibition in vivo at 10 mg/kg came to 100%. The same measure, in the same setting: next, `CCOC(=O)c1cccc(/C=C2/C=C(c3cccc(OC)c3)C(CN(C)C)CC2)c1` (centres unmarked) [Compound 33, E-3-[4-Dimethylaminomethyl-3-(3-methoxy-phenyl)-cyclohex-2-enylidenemethyl]-benzoic acid ethyl ester]: 90%. Same read-out and setting: with `CCN(CC)C(=O)c1cccc(/C=C2\C=C(c3cccc(OC)c3)C(CN(C)C)CC2)c1` (centres unmarked) [Compound 34, Z-3-[4-Dimethylaminomethyl-3-(3-methoxy-phenyl)-cyclohex-2-enylidenemethyl]-N,N-diethyl-benzamide] the figure was 78%. As to `COC(=O)c1cccc(/C=C2/C=C(c3cccc(O)c3)C(CN(C)C)CC2)c1` (centres unmarked) [Compound 37, E-3-[4-dimethylaminomethyl-3-(3-hydroxy-phenyl)-cyclohex-2-enylidenemethyl]-benzoic acid methyl ester], the inhibition in vivo at 10 mg/kg was determined as 91%. As for `COc1cccc(C2=C/C(=C\c3cccc(C(=O)OCC(C)C)c3)CCC2CN(C)C)c1` (centres unmarked) [Compound 39, Z-3-[4-Dimethylaminomethyl-3-(3-methoxy-phenyl)-cyclohex-2-enylidenemethyl]-benzoic acid isobutyl ester], the inhibition in vivo at 10 mg/kg is 78%.

As to `CN(C)CC1CC/C(=C/c2cccc(C(=O)O)c2)C=C1c1cccc(O)c1` (centres unmarked) [Compound 48, Z-3-[4-Dimethylaminomethyl-3-(3-hydroxy-phenyl)-cyclohex-2-enylidenemethyl]-benzoic acid], the inhibition in vivo at 10 mg/kg was 98%.

The assay is the same for the next values; noted with them: mouse writhing test, 10 minutes before phenylquinone i.p., writhing counted 5-20 minutes after phenylquinone.
Take `COc1cccc([C@@H]2C/C(=C/c3cccc(C(=O)O)c3)CC[C@@H]2CN(C)C)c1.Cl` (racemic) [Compound 26, rac-cis-E-3-[4-Dimethylaminomethyl-3-(3-methoxy-phenyl)-cyclohexylidenemethyl]-benzoic acid]: the “% inhibition of the writhing reactions (10 mg/kg i.v.)” value came to 87%. The same measure, in the same setting: next, `CCN(CC)C(=O)c1cccc(/C=C2\CC[C@H](CN(C)C)[C@H](c3cccc(OC)c3)C2)c1.Cl` (racemic) [Compound 35, rac-cis-E-3-[4-Dimethylaminomethyl-3-(3-methoxy-phenyl)-cyclohexylidenemethyl]-N,N-diethyl-benzamide]: 100%.
